Results from patent US7833795B2, “Assessment of cardiovascular risk using isoprostane biomarkers and COX-2 selective inhibitors” (The Trustees of the University of Pennsylvania, priority 2004, dated 2010).

What was measured:
Male Fisher 344 rats [1] = assay: Urinary free 8-iso-PGF2α by radioimmunoassay; type: in vivo, rat; settings: both doses of CCl4, 7 h
Protocol: (§1) Animals and treatment protocol: Male Fisher 344 rats (260-280 g) obtained from Charles River Laboratories (Raleigh, N.C.) were used in all experiments. The animals were housed three to a cage. Autoclaved hardwood bedding was used in solid-bottom polycarbonate cages with filter tops. Animal rooms were maintained at 20-25° C. with 35-70% relative humidity with alternating 12-hour light and dark cycles. The rats had free access to deionized, reverse-osmosis-treated water and received autoclaved NIH 31 rodent chow (Zeigler Bros., Gardners, Pa.) ad libitum. For all experiments, rats were fasted overnight and then administered intraperitoneal injections of carbon tetrachloride in canola oil. Control rats received an equal volume of canola oil. Fasting continued throughout the experiment. Rats were anesthetized with Nembutal (0.1 ml/100 g body weight) and 5 ml blood was removed from the dorsal aorta proximal to its bifurcation into the common iliac arteries.
(§2) Meclofenamic acid pretreatment: Meclofenamic acid was injected at a dose of 5 mg/kg i.p. 12 h and 2 h prior to the injection of CCl4.
Carbon tetrachloride (CCL4) treatment: Animals from each of the three dose groups (Control-canola oil, 120 mg/kg CCl4 i.p. and 1200 mg/kg CCl4 i.p.) were investigated at three time points (2, 7, and 16 hours after CCl4 injection). Indomethacin-pretreated rats were also investigated at the same three time points, and the meclofenamic acid-pretreated rats were investigated at one time point (7 hours). Each group consisted of five rats for each analysis, except the meclofenamic acid pretreatment group which consisted of six rats. Animal treatment, sample preparation, assessment of liver histology and serum enzyme activities are described elsewhere (Kadiiska et al., 2000, Free Radic. Biol. Med. 28: 838-845; Jackson, 1989, J. Pharmacol. Exp. Ther. 250: 9-21) and were carried out at NIEHS, Research Triangle Park, N.C. […]
In Experimental Example 2, urine samples were also analyzed for free 8-iso-PGF2α, without any extraction, by radioimmunoassay (Basu, 1998, Prost. Leuk. Ess. Fatty Acids. 58: 319-325). […]

Male Fisher 344 rats [2] = assay: Urinary free plus esterified 8-iso-PGF2α by immunoassay; type: in vivo, rat; settings: for Free plus esterified 8-iso PGF2a (by immunoassay): urine
Protocol: as §1
Indomethacin pretreatment: The indomethacin regimen used has been previously shown to inhibit COX activity in rats by 90% (dose of 5 mg/kg s.c. 24 hours, 12 hours, and 2 hours prior to the injection of CCl4) (Jackson, 1989, J. Pharmacol. Exp. Ther. 250: 9-21). An additional booster dose was injected 8 hours after the last injection of CCl4 for the measurements performed 16 hours after treatment with CCl4.
as §2
Carbon tetrachloride (CCL4) treatment: Animals from each of the three dose groups (Control-canola oil, 120 mg/kg CCl4 i.p. and 1200 mg/kg CCl4 i.p.) were investigated at three time points (2, 7, and 16 hours after CCl4 injection). Indomethacin-pretreated rats were also investigated at the same three time points, and the meclofenamic acid-pretreated rats were investigated at one time point (7 hours). Each group consisted of five rats for each analysis, except the meclofenamic acid pretreatment group which consisted of six rats. Animal treatment, sample preparation, assessment of liver histology and serum enzyme activities are described elsewhere (Kadiiska et al., 2000, Free Radic. Biol. Med. 28: 838-845; Jackson, 1989, J. Pharmacol. Exp. Ther. 250: 9-21) and were carried out at NIEHS, Research Triangle Park, N.C.
Urine sample preparation: The day prior to treatment, both experimental and control animals were placed in stainless steel metabolic cages especially designed for urine collection. For Experimental Example 2, animals were placed in metabolic cages immediately after the last injection of indomethacin or meclofenamic acid. Urine was collected (in dark vials) from the animals during the following intervals: 2 to 7 hours and 7 to 16 hours after CCl4 or canola oil (controls) treatment. Urine samples from indomethacin-pretreated rats were collected from 2 to 7 hours and 7 to 16 hours after the injection of CCl4, whereas samples from meclofenamic-acid-pretreated rats were collected only from 2 to 7 hours after the injection. All urine samples were immediately frozen on dry ice and stored at −70° C.
Urinary 8-iso-PGF2α concentrations were measured by the competitive immunoassay procedure in which 8-iso-PGF2α conjugated to alkaline phosphatase competed with the test analyte for antibody specific for the isoprostane. The anti-8-iso-PGF2α antibody was captured by anti-Fc antibodies immobilized on a microtiter plate. The assay was developed by Assay Designs, Inc., Ann Arbor, Mich. and performed at OXIS Research, Portland, Oreg.
In an additional method not recited in Example 1, an immunoassay was used to measure the sum of free plus esterified 8-iso-PGF2α. The immunoassay used anti-8-iso-PGF2α antibody was developed by Assay Designs, Inc., Ann Arbor, Mich., and performed at Oxis Research, Portland, Oreg.

ClC(Cl)(Cl)Cl [CCl4, Carbon tetrachloride]
urinary free 8-iso-PGF2α (radioimmunoassay) (Male Fisher 344 rats [1]): dose-dependent increase | Free plus esterified 8-iso PGF2a (by immunoassay) (Male Fisher 344 rats [2]; CCl4 120 mg/kg i.p., 7 h): 25.7 ng/mgcreatinine | Free plus esterified 8-iso PGF2a (by immunoassay) (Male Fisher 344 rats [2]; CCl4 120 mg/kg i.p., 16 h): 17.4 ng/mgcreatinine | Free plus esterified 8-iso PGF2a (by immunoassay) (Male Fisher 344 rats [2]; CCl4 1200 mg/kg i.p., 7 h): 57.0 ng/mgcreatinine | Free plus esterified 8-iso PGF2a (by immunoassay) (Male Fisher 344 rats [2]; CCl4 1200 mg/kg i.p., 16 h): 30.4 ng/mgcreatinine | increase of urinary 8-iso-PGF2α (immunoassay) (Male Fisher 344 rats [2]; high dose CCl4, 7 h): 10 fold | increase of urinary 8-iso-PGF2α (immunoassay) (Male Fisher 344 rats [2]; high dose CCl4, 16 h): 6 fold
